Test system: A2780 cells
Test: chemotherapy-dependent RNA degradation (RNA integrity number, Agilent 2100 Bioanalyzer) in cultured A2780 cells
Assay type: cell-based
Conditions: for concentration at which reductions in RNA integrity are induced: range tested 2.5-40 μM; for change in RNA integrity at low concentrations: low (micromolar) concentrations; for effect on RNA integrity (in words): up to 40 μM
Method: Before starting RNA isolation, an appropriate volume of buffer RLT is prepared by adding β-mercaptoethanol to buffer RLT in a ratio of 10 μl for every 1 ml of solution. RLT buffer is stable for a month after addition of β-ME. […] This precipitate was redissolved by warming at 30° C. and then placing the solution at room temperature. Aliquots of 0.5 ml RLT buffer (with β-ME) were placed in Eppendorf microfuge tubes prior to RNA isolation procedures. […] The resulting lysate is passed at least 5 times through a 20-gauge needle (0.9 mm diameter) fitted to an RNase-free syringe to shear associated genomic DNA. The sheared lysate is then transferred to a microcentrifuge tube and centrifuged at maximum speed for 3 minutes, with transfer of the supernatant to a new tube. One volume of 70% ethanol (500 μl) is added to the homogenized lysate, and the sample mixed well by pipetting. If some volume of the lysate is lost during homogenization, the volume of ethanol is adjusted accordingly. […] Up to 700 μl of the sample is then applied to an RNeasy mini column placed in a 2 ml collection tube, including any precipitate that may have formed. […] Any remaining lysate is applied to the column and the column centrifuged as described above, discarding the flow-through. Buffer RW1 (700 μl) is then added to the RNeasy column in a 2 ml microfuge tube to wash the column free of unbound lysate components. […] The RNeasy column is placed into a new 2 ml microfuge tube and 500 μl of RPE buffer is added to wash the column. After centrifugation for 30 seconds at ≥8000×g (≥10,000 rpm) to remove the wash buffer, two identical washes of the column in RPE buffer are performed. This buffer is supplied as a concentrate, and must be diluted with 4 volumes of ethanol (100%) prior to use. Any residual liquid associated with the column is then removed by centrifugation at full speed for 1 minute. […] After leaving the column at room temperature for 1 minute, the column is centrifuged for 1 min at full speed to collect the eluted RNA. To obtain a higher concentration and complete elution of the RNA from column, a second elution step was performed by reapplying the eluate to the column and centrifuging a second time.
This document includes a detailed description on setting up the assay equipment, preparing and running the RNA Nanochips, and analysis of the capillary electrophoretic data using the Agilent […] Bioanalyzer and its associated “Expert software”. It is important that all “Essential Measurement Practices” described in the document are followed. RNA 6000 “Nanochips” and associated solutions are obtained in RNA 6000 Nano kits that can be purchased from Agilent Technologies (Mississauga, ON). RNA Nanochips are manufactured by Caliper Life Sciences (Hopkinton, Mass.). The sizes of the rRNAs, and the concentration of RNA in a given sample are determined by extrapolation from a standard curve of reference RNAs provided in the RNA 6000 NANO kits. All data from the Bioanalyzer runs were stored both as PDF and XAD files. The Agilent 2100 Expert software was used to obtain all data from the capillary electrophoresis runs, including the RNA quality and quantity for a given RNA preparation.

[1] = 40 μM (each drug), same experiment, FIG. 2
[2] = 40 μM (each drug), same experiment, from 9.40±0.12 units, FIG. 2
[3] = A2780 cells, 40 μM, 24 h, FIG. 1

Question: Which “concentration at which reductions in RNA integrity are induced” value (A2780 cells, 24 h) does the source give for `O=c1[nH]cc(F)c(=O)[nH]1` [5-FI-uracil, 5-fluorouracil] here?
Answer: ≥ 20 µM

Question: `N.N.[Cl][Pt][Cl]` [cisplatin] was tested. Which “effect on RNA integrity at highest concentration” value (A2780 cells, 40 μM, 24 h) did it give?
Answer: substantial and statistically significant reductions

Question: What about the “change in RNA integrity at low concentrations” value (A2780 cells, 24 h) of the same compound?
Answer: no effect

Question: With `CC(=O)O[C@@]12CO[C@@H]1C[C@H](O)[C@@]1(C)C(=O)[C@H](O)C3=C(C)[C@@H](OC(=O)[C@H](O)[C@@H](NC(=O)OC(C)(C)C)c4ccccc4)C[C@@](O)([C@@H](OC(=O)c4ccccc4)[C@H]21)C3(C)C` [docetaxel] as the compound, how does the “RNA integrity after treatment” value [1] read?
Answer: 8.67±0.42 units

Question: What about the “reduction in RNA integrity” value [2] of the same compound?
Answer: 7.8%

Question: And the “reduction in RNA integrity” value [3]?
Answer: 18.8%

Question: What about the “change in RNA integrity at low concentrations” value (A2780 cells, 24 h) of the same compound?
Answer: little change

Question: And the “effect on RNA integrity (in words)” value (A2780 cells)?
Answer: minimal reduction

Question: What does the source list for `COc1cccc2c1C(=O)c1c(O)c3c(c(O)c1C2=O)C[C@@](O)(C(=O)CO)C[C@@H]3O[C@H]1C[C@H](N)[C@H](O)[C@H](C)O1` [doxorubicin]?
Answer: reduction in RNA integrity [3]: up to 20.0%; concentration at which reductions in RNA integrity are induced (A2780 cells, 24 h): 2.5 µM; effect on RNA integrity (in words) (A2780 cells): significant reductions

Question: What does the source list for `COc1cccc2c1C(=O)c1c(O)c3c(c(O)c1C2=O)C[C@@](O)(C(=O)CO)C[C@@H]3O[C@H]1C[C@H](N)[C@@H](O)[C@H](C)O1` [epirubicin]?
Answer: RNA integrity after treatment [1]: 5.87±1.74 units; reduction in RNA integrity [2]: 37.7%; dose-dependent reduction in RNA quality (up to) (A2780 cells, 2.5-40 μM, 24 h, FIG. 1): up to 29.2%; concentration at which reductions in RNA integrity are induced (A2780 cells, 24 h): 2.5 µM

Question: What does the source list for `COc1cc([C@@H]2c3cc4c(cc3[C@@H](O[C@@H]3O[C@@H]5CO[C@@H](C)O[C@H]5[C@H](O)[C@H]3O)[C@H]3COC(=O)[C@H]23)OCO4)cc(OC)c1O` [etoposide]?
Answer: effect on RNA integrity at highest concentration (A2780 cells, 40 μM, 24 h): no effect; effect on RNA integrity (in words) (A2780 cells): unable to affect RNA integrity

Question: With `CC(=O)O[C@H]1C(=O)[C@@]2(C)[C@H]([C@H](OC(=O)c3ccccc3)[C@]3(O)C[C@H](OC(=O)[C@H](O)[C@@H](NC(=O)c4ccccc4)c4ccccc4)C(C)=C1C3(C)C)[C@]1(OC(C)=O)CO[C@@H]1C[C@@H]2O` [paclitaxel] as the compound, how does the “reduction in RNA integrity” value (A2780 cells, 20 μM, 24 h, FIG. 1) read?
Answer: 52.5%

Question: And the “reduction in RNA integrity” value [3]?
Answer: 75.8%

Question: What about the “effect on RNA integrity (in words)” value (A2780 cells) of the same compound?
Answer: greatest reduction

Question: Which results are given for `CC[C@]1(O)C[C@@H]2CN(CCc3c([nH]c4ccccc34)[C@@](C(=O)OC)(c3cc4c(cc3OC)N(C)[C@H]3[C@@](O)(C(=O)OC)[C@H](OC(C)=O)[C@]5(CC)C=CCN6CC[C@]43[C@@H]65)C2)C1` [vinblastine]?
Answer: concentration at which reductions in RNA integrity are induced (A2780 cells, 24 h): 2.5 µM; reduction of RNA integrity (A2780 cells, lowest concentration tested 2.5 μM): almost two
